In patent publication US10464926B2, “Heterobicyclic compounds and their use for the treatment of tuberculosis” (OTSUKA PHARMACEUTICAL CO., LTD., priority 2014, dated 2019):

Compound | melting point
O=C1CCc2c(OCC3(O)CCN(c4ccccc4)CC3)ccc(F)c2N1 | 177 to 177.4 °C
CCCCOc1cc(F)c(N2CC[C@@](O)(COc3ccc(F)c4c3CCC(=O)N4)[C@H](O)C2)c(F)c1 | 185.8 to 186.2 °C
O=C1CCc2c(OCC3(O)CCN(c4cc(OCC(F)(F)F)c(Cl)cc4F)CC3)ccc(F)c2N1 | 200.6 to 201 °C
O=C1CCc2c(OCC3(O)CCN(c4cc(OC(F)(F)F)c(Cl)cc4Cl)CC3)ccc(F)c2N1 | 254.8 to 254.9 °C
O=C1CCc2c(OC[C@@]3(O)CCN(c4ncc(Cl)cc4Cl)C[C@@H]3O)ccc(F)c2N1 (relative stereo) | 202.6 to 204.8 °C
O=C1CCc2c(OCC3(O)CCN(c4ccc(OC(F)F)cc4F)CC3)ccc(F)c2N1 | 201.6 to 202 °C
O=C1CCc2c(OCC3(O)CCN(c4c(F)cc(Br)cc4F)CC3)ccc(Cl)c2N1 | 195.3 to 195.4 °C
O=C1CCc2c(OC[C@]3(O)CCN(c4nc5ccccc5o4)C[C@H]3O)ccc(F)c2N1 | 190 to 191 °C
CCOc1cc(F)c(N2CC[C@@](O)(COc3ccc(F)c4c3CCC(=O)N4)[C@H](O)C2)c(F)c1 [Example 317] | 176 to 178 °C
COCCOCCOc1ccc(N2CCC(O)(COc3ccc(F)c4c3CCC(=O)N4)CC2)c(F)c1 | 128.7 to 130.7 °C
CCc1cc(N2CCC(O)(COc3ccc(Cl)c4c3CCC(=O)N4)CC2)c(F)cc1F | 178.8 to 178.9 °C
CCOc1cnc(N2CCC(O)(COc3ccc(F)c4c3CCC(=O)N4)CC2)c(Cl)c1 | 187.9 to 190.2 °C
O=C1CCc2c(OCC3(O)CCN(c4c(Cl)cncc4Cl)CC3)ccc(F)c2N1 | 225.8 to 225.9 °C
O=C1CCc2c(OC[C@]3(O)CCN(c4nc5ccc(Cl)cc5o4)C[C@H]3O)ccc(F)c2N1 | 219 to 220 °C
O=C1CCc2c(OCC3(O)CCN(c4ccc(OCc5ccc(C(F)(F)F)cc5)cc4F)CC3)ccc(F)c2N1 | 207.4 to 210.3 °C
O=C1CCc2c(OCC3(O)CCN(c4cc(F)c(Cl)cc4F)CC3)ccc(Cl)c2N1 | 190.3 to 190.4 °C
O=C1CCc2c(OC[C@]3(O)CCN(c4c(F)cc(OCC(F)(F)F)cc4F)C[C@H]3O)ccc(F)c2N1 [Example 311] | 187 °C
O=C1CCc2c(OC[C@]3(O)CCN(c4ccccc4)C[C@H]3O)ccc(F)c2N1 | 202.8 to 203.5 °C
O=C1CCc2c(OC[C@]3(O)CCN(c4c(F)cc(F)cc4F)C[C@H]3O)ccc(F)c2N1 (relative stereo) [Example 305] | 198 to 199 °C

Compound | melting point
O=C1CCc2c(OCC3(O)CCN(c4cc(F)c(Cl)cc4Cl)CC3)ccc(F)c2N1 | 198.7 to 198.9 °C
CCc1ccc(N2CCC(O)(COc3ccc(F)c4c3CCC(=O)N4)CC2)c(Cl)c1 | 167.8 to 168 °C
O=C1CCc2c(OCC3(O)CCN(c4ccc(OC(F)(F)F)cc4Cl)CC3)ccc(F)c2N1 | 181.8 to 181.9 °C
O=C1CCc2c(OCC3(O)CCN(c4cc(OC(F)(F)F)c(Cl)cc4F)CC3)ccc(F)c2N1 | 208 °C
O=C1CCc2c(OC[C@@]3(O)CCN(c4c(F)cc(Cl)cc4F)C[C@@H]3O)cc(F)c(F)c2N1 (relative stereo) | 215 to 217 °C
O=c1ccc2c(OC[C@]3(O)CCN(c4ccc(Br)cc4F)C[C@H]3O)ccc(F)c2[nH]1 | 224.5 °C (dec.)
O=C1CCc2c(OCC3(O)CCN(c4ccc(F)cc4F)CC3)ccc(F)c2N1 | 201.7 to 201.9 °C
N#Cc1cc(F)ccc1N1CCC(COc2ccc(F)c3c2CCC(=O)N3)(ON)CC1 | 207 to 208 °C
Cc1cc(N2CCC(O)(COc3ccc(Cl)c4c3CCC(=O)N4)CC2)c(F)cc1Cl | 212.2 to 213.1 °C
O=C1CCc2c(OC[C@]3(O)CCN(c4ccc(Cl)cc4F)C[C@H]3O)cc(F)c(F)c2N1 [Example 324] | 192.6 to 193.4 °C
CCSc1cc(F)c(N2CCC(O)(COc3ccc(Cl)c4c3CCC(=O)N4)CC2)c(F)c1 | 157.4 to 157.5 °C
O=C1CCc2c(OC[C@]3(O)CCN(c4ccc(F)cc4)C[C@H]3O)ccc(F)c2N1 [Example 337] | 185.2 to 185.3 °C
CCOc1cc(N2CCC(O)(COc3ccc(F)c4c3CCC(=O)N4)CC2)c(F)cc1Cl | 239.8 to 239.9 °C
O=C1CCc2c(OCC3(O)CCN(c4ncc(Br)cc4F)CC3)ccc(F)c2N1 | 197.4 to 203.9 °C
O=C1CCc2c(OCC3(O)CCN(c4cc5c(cc4F)OC(F)(F)O5)CC3)cc(F)c(Cl)c2N1 | 249.4 to 250.5 °C (dec.)
Cc1ccc(N2CCC(O)(COc3ccc(Cl)c4c3CCC(=O)N4)CC2)nc1C | 169.6 to 171 °C
O=C1CCc2c(OCC3(O)CCN(c4ccc(Cl)cc4F)CC3)ccc(Cl)c2N1 | 222.9 to 223 °C
O=C1CCc2c(OCC3(O)CCN(c4c(Cl)cc(Cl)cc4Cl)CC3)ccc(F)c2N1 | 239.4 to 239.8 °C

Results, then the compound that gave them:

melting point | Compound
192 to 194 °C | O=C1CCc2c(OC[C@]3(O)CCN(c4c(F)cc(Cl)cc4F)C[C@H]3O)cc(F)c(Cl)c2N1 [Example 278]
186.7 to 186.8 °C | CCc1cc(N2CCC(O)(COc3ccc(F)c4c3CCC(=O)N4)CC2)c(F)cc1F
209 to 210 °C | O=C1CCc2c(OC[C@]3(O)CCN(c4c(F)cc(Br)cc4F)C[C@@H]3O)ccc(F)c2N1 (relative stereo)
194.9 to 195.1 °C | O=C1CCc2c(OCC3(O)CCN(c4ccc(OCc5ccc(C(F)(F)F)cn5)cc4F)CC3)ccc(F)c2N1
184.1 to 185.1 °C | O=C1CCc2c(OC[C@]3(O)CCN(c4ccc(Cl)cc4Cl)C[C@H]3O)ccc(Cl)c2N1
194.8 to 195 °C | CCCOc1cc(F)c(N2CC[C@@](O)(COc3ccc(F)c4c3CCC(=O)N4)[C@H](O)C2)c(F)c1
232 °C | O=c1ccc2c(OC[C@]3(O)CCN(c4c(F)cc(Cl)cc4F)C[C@H]3O)ccc(F)c2[nH]1 (relative stereo) [Example 371]
171.1 to 171.3 °C | COc1cc(F)c(N2CCC(O)(COc3ccc(Cl)c4c3CCC(=O)N4)CC2)c(F)c1
218 °C | N#CC1(COc2ccc(F)c3c2CCC(=O)N3)CCN(c2ncc(Cl)cc2Cl)CC1
180.6 to 181 °C | CCOc1cc(F)c(N2CCC(O)(COc3ccc(Cl)c4c3CCC(=O)N4)CC2)c(F)c1
163.1 to 164.6 °C | O=C1CCc2c(OC[C@]3(O)CCN(c4ccc(OC(F)F)cc4)C[C@H]3O)ccc(F)c2N1
170.6 to 170.8 °C | COCCOc1cc(N2CCC(O)(COc3ccc(F)c4c3CCC(=O)N4)CC2)c(F)cc1Cl
226 to 227 °C | O=C1CCc2c(NCC3(O)CCN(c4ccc(Cl)cc4Cl)CC3)ccc(F)c2N1
208 °C | O=C1CCc2c(OCC3(O)CCN(c4ccc(F)cc4Cl)CC3)ccc(F)c2N1
233.1 to 233.2 °C | O=C1CCc2c(OCC3(O)CCN(c4c(F)cc(Br)cc4F)CC3)cc(F)c(F)c2N1
183 °C | COC(=O)NC1(COc2ccc(F)c3c2CCC(=O)N3)CCN(c2ncc(Cl)cc2Cl)CC1
193 to 194.7 °C | O=C1CCc2c(OCC3(O)CCN(c4ncc(C(F)(F)F)cc4Cl)CC3)ccc(Cl)c2N1
204.8 to 205.4 °C | O=C1CCc2c(OCC3(O)CCN(c4cc([N+](=O)[O-])ccc4Cl)CC3)ccc(F)c2N1
198.8 to 199.1 °C | CCOc1ccc(N2CCC(O)(COc3ccc(F)c4c3CCC(=O)N4)CC2)cc1
188 to 189 °C | O=C1CCc2c(OCC3(O)CCN(c4ccc(Cl)cc4[N+](=O)[O-])CC3)ccc(F)c2N1
205.1 to 205.7 °C | O=C1CCc2c(OCC3(O)CCN(c4cc(OCc5ccc(Cl)cc5)c(Cl)cc4F)CC3)ccc(F)c2N1

melting point | Compound
156.9 to 157 °C | CCCc1cc(N2CCC(O)(COc3ccc(Cl)c4c3CCC(=O)N4)CC2)c(F)cc1F
222 to 223 °C | C[C@H]1CN(c2ncc(Cl)cc2Cl)CC[C@@]1(O)COc1ccc(F)c2c1CCC(=O)N2 (relative stereo)
148 °C | CCOC(=O)c1cc(N2CCC(O)(COc3ccc(F)c4c3CCC(=O)N4)CC2)ccc1Cl
200 to 200.3 °C | O=C1CCc2c(OCC3(O)CCN(c4ccc(F)cc4F)CC3)ccc(Cl)c2N1
147 to 149 °C | NOC1(COc2ccc(F)c3c2CCC(=O)N3)CCN(c2ncc(Cl)cc2Cl)CC1
223.1 to 223.2 °C | O=C1CCc2c(OCC3(O)CCN(c4ccc(Br)cc4F)CC3)ccc(Cl)c2N1
175.9 to 177.1 °C | O=C1CCc2c(OCC3(O)CCN(c4ccc(OCc5ccc(Cl)cc5Cl)cc4F)CC3)ccc(F)c2N1
195 to 195.2 °C | Cc1cc(N2CCC(O)(COc3ccc(Cl)c4c3CCC(=O)N4)CC2)c(F)cc1F
226.6 to 226.7 °C | O=C1CCc2c(OCC3(O)CCN(c4cc5c(cc4F)OC(F)(F)O5)CC3)ccc(F)c2N1
195 to 198 °C | O=C1CCc2c(OC[C@]3(O)CCN(c4c(F)cc(Br)cc4F)C[C@H]3O)ccc(Cl)c2N1 (relative stereo) [Example 339]
175.7 to 177 °C | O=C1CCc2c(OC[C@]3(O)CCN(c4ccc(F)cc4Cl)C[C@H]3O)cc(F)c(Cl)c2N1
196 to 197.1 °C | O=C1CCc2c(OC[C@]3(O)CCN(c4ccc(OC(F)(F)F)cc4)C[C@H]3O)ccc(F)c2N1
182.6 to 187.5 °C | C[C@]1(O)CN(c2ncc(Cl)cc2Cl)CC[C@]1(O)COc1ccc(F)c2c1CCC(=O)N2 (relative stereo)
200.7 °C | O=C1CCc2c(OCC3(O)CCN(c4ccc(OC(F)(F)F)cc4)CC3)ccc(F)c2N1
160.9 to 163.1 °C | NC1(COc2ccc(F)c3c2CCC(=O)N3)CCN(c2ncc(F)cc2F)CC1
193.2 to 193.5 °C | CCCCOc1ccc(N2CCC(O)(COc3ccc(F)c4c3CCC(=O)N4)CC2)c(F)c1
239.3 to 239.6 °C | O=C1CCc2c(OCC3(O)CCN(c4c(F)cc(F)cc4Cl)CC3)ccc(F)c2N1
211.3 to 211.5 °C | O=C1CCc2c(OCC3(O)CCN(c4ccc(Cl)cc4C(F)(F)F)CC3)ccc(F)c2N1
204.8 to 205 °C | O=C1CCc2c(OCC3(O)CCN(c4ccc(Br)cc4F)CC3)ccc(F)c2N1
177.7 to 178 °C | O=C1CCc2c(OC[C@]3(O)CCN(c4ccccc4F)C[C@H]3O)ccc(F)c2N1
174.4 to 175.8 °C | O=C1CCc2c(OCC3(O)CCN(c4ncc(Cl)cc4F)CC3)ccc(Cl)c2N1
